According to patent US9023832B2, “Derivatives of 1-amino-2-cyclopropylethylboronic acid” (Millennium Pharmaceuticals, Inc., priority 2010, dated 2015):

What was measured:
[1] = molecular target: T1, human 20S proteasome β5 (Homo sapiens, UniProt P28074); assay: 20S Proteasome Assay, β5 selective substrate (Ac-WLA-AMC); type: biochemical; conditions: concentration 0.41 μM; typically tested as mannitol esters
T1 construct: purchased Boston Biochem
Method: (§1) β5 Selective substrate: To 1 μL of test compound dissolved in DMSO in a 384-well black microtiter plate is added 25 μL of assay buffer at 37° C. containing human PA28 activator (Boston Biochem, 12 nM final) with Ac-WLA-AMC (β5 selective substrate) (15 μM final), followed by 25 μL of assay buffer at 37° C. containing human 20S proteasome (Boston Biochem, 0.25 nM final). Assay buffer is composed of 20 mM HEPES, 0.5 mM EDTA and 0.01% BSA, pH7.4. The reaction is followed on a BMG Galaxy plate reader (37° C., excitation 380 nm, emission 460 nm, gain 20). Percent inhibition is calculated relative to 0% inhibition (DMSO) and 100% inhibition (10 μM bortezomib) controls. Compound of formula (I) are typically tested in this assay as their mannitol esters (prepared as described above). The mannitol esters are hydrolyzed to the free active boronic acid species.

[2] = molecular target: T2, human 20S proteasome β1 (Homo sapiens, UniProt P28072); assay: 20S Proteasome Assay, β1 selective substrate (Z-LLE-AMC); type: biochemical; conditions: typically tested as mannitol esters; for inhibition at 0.41 µM: concentration 0.41 μM; for inhibition at 0.33 µM: concentration 0.33 μM
T2 construct: purchased Boston Biochem
Method: as §1, with “β1” for “β5”, “384-well” for “384-well black”, “Z-LLE-AMC ([…]1” for “Ac-WLA-AMC (β5”

SMILES	inhibition at 0.41 µM [1]	inhibition at 0.41 µM [2]	inhibition at 0.33 µM [2]
O=C(N[C@@H](CC1CC1)B(O)O)[C@H](Cc1ccccc1)NS(=O)(=O)c1ccc2ncsc2c1 [Compound 4, [(1R)-1-({(2S)-2-[(1,3-benzothiazol-6-ylsulfonyl)amino]-3-phenylpropanoyl}amino)-2-cyclopropylethyl]boronic acid]	89.8%	73.2%	
O=C(N[C@@H](CC1CC1)B(O)O)[C@H](Cc1ccccc1)NS(=O)(=O)c1cccc(Oc2ccc(C(F)(F)F)cn2)c1 [Compound 7, {(1R)-2-cyclopropyl-1-[((2S)-3-phenyl-2-{[(3-{[5-(trifluoromethyl)pyridin-2-yl]oxy}phenyl)sulfonyl]amino}propanoyl)amino]ethyl}boronic acid]	93%	81.3%	
O=C(N[C@@H](Cc1ccccc1)C(=O)N[C@@H](CC1CC1)B(O)O)c1cc(Cl)ccc1Cl [Compound 9, [(1R)-2-cyclopropyl-1-({(2S)-2-[(2,5-dichlorobenzoyl)amino]-3-phenylpropanoyl}amino)ethyl]boronic acid]	93.3%		91.1%
O=C(N[C@@H](Cc1ccccc1)C(=O)N[C@@H](CC1CC1)B(O)O)c1cnccn1 [Compound 12, [(1R)-2-cyclopropyl-1-({(2S)-3-phenyl-2-[(pyrazin-2-ylcarbonyl)amino]propanoyl}amino)ethyl]boronic acid]	81.9%		93%
CN1C(=O)Cc2cc(S(=O)(=O)N[C@@H](Cc3ccccc3)C(=O)N[C@@H](CC3CC3)B(O)O)ccc21 [Compound 13, {(1R)-2-cyclopropyl-1-[((2S)-2-{[(1-methyl-2-oxo-2,3-dihydro-1H-indol-5-yl)sulfonyl]amino}-3-phenylpropanoyl)amino]ethyl}boronic acid]	83.7%	66.7%	
O=C1COc2cc(S(=O)(=O)N[C@@H](Cc3ccccc3)C(=O)N[C@@H](CC3CC3)B(O)O)c(Cl)cc2N1 [Compound 15, {(1R)-1-[((2S)-2-{[(6-chloro-3-oxo-3,4-dihydro-2H-1,4-benzoxazin-7-yl)sulfonyl]amino}-3-phenylpropanoyl)amino]-2-cyclopropylethyl}boronic acid]	90.3%	77.1%	
O=C(c1cccc(S(=O)(=O)N[C@@H](Cc2ccccc2)C(=O)N[C@@H](CC2CC2)B(O)O)c1)c1ccccn1 [Compound 16, ((1R)-2-cyclopropyl-1-{[(2S)-3-phenyl-2-({[3-(pyridin-2-ylcarbonyl)phenyl]sulfonyl}amino)propanoyl]amino}ethyl)boronic acid]	90.8%	82.7%	

Further lines, results first:

inhibition at 0.41 µM [1]	inhibition at 0.41 µM [2]	inhibition at 0.33 µM [2]	SMILES
91.8%	67.2%		O=C(N[C@@H](CC1CC1)B(O)O)[C@H](Cc1ccccc1)NS(=O)(=O)c1ccc(Oc2ccccn2)cc1 [Compound 1, ((1R)-2-cyclopropyl-1-{[(2S)-3-phenyl-2-({[4-(pyridin-2-yloxy)phenyl]sulfonyl}amino)propanoyl]amino}ethyl)boronic acid]
89%	70.7%		O=C(N[C@@H](CC1CC1)B(O)O)[C@H](Cc1ccccc1)NS(=O)(=O)c1ccc(Oc2cccnc2)cc1 [Compound 2, ((1R)-2-cyclopropyl-1-{[(2S)-3-phenyl-2-({[4-(pyridin-3-yloxy)phenyl]sulfonyl}amino)propanoyl]amino}ethyl)boronic acid]
92.9%	65.4%		O=C(N[C@@H](CC1CC1)B(O)O)[C@H](Cc1ccccc1)NS(=O)(=O)c1ccc(-c2cnco2)cc1 [Compound 6, ((1R)-2-cyclopropyl-1-{[(2S)-2-({[4-(1,3-oxazol-5-yl)phenyl]sulfonyl}amino)-3-phenylpropanoyl]amino}ethyl)boronic acid]
93.1%	75.7%		O=C(N[C@@H](CC1CC1)B(O)O)[C@H](Cc1ccccc1)NS(=O)(=O)c1ccc(Oc2ccncc2)cc1 [Compound 14, ((1R)-2-cyclopropyl-1-{[(2S)-3-phenyl-2-({[4-(pyridin-4-yloxy)phenyl]sulfonyl}amino)propanoyl]amino}ethyl)boronic acid]
89.7%	71.9%		O=C(N[C@@H](CC1CC1)B(O)O)[C@H](Cc1ccccc1)NS(=O)(=O)c1cccc2cnccc12 [Compound 17, [(1R)-2-cyclopropyl-1-({(2S)-2-[(isoquinolin-5-ylsulfonyl)amino]-3-phenylpropanoyl}amino)ethyl]boronic acid]
